Tested on: HLA class II molecules (HLA-DRB1*0101, *0301, *0401, *0404, *0405, *0701, *0802, *0901, *1101, *1302, *1501, HLA-DRB4*0101, HLA-DRB5*0101)
Type: binding, human

Compared with MEKIVLLFAIVSLVKSD [SEQ ID NO: 1], VVWLIKKNSTYPTIKR [SEQ ID NO: 3] is higher in “# Alleles Bound” value: 6 for the first, 9 for the second.

First: CPKYVKSNRLVLATGL [SEQ ID NO: 7]
Second: ELLVLMENERTLDFHDS [SEQ ID NO: 9]
The “# Alleles Bound” value of the first is higher: 12 for the first, 8 for the second.

Going from IYQILSIYSTVASSLA [SEQ ID NO: 11] to KSSFFRNVVWLIKKN [SEQ ID NO: 2], the “# Alleles Bound” value falls from 13 to 12.

NRLVLATGLRNSPQR [SEQ ID NO: 8] and RMEFFWTILKPNDAI [SEQ ID NO: 5] are the same in “# Alleles Bound” value: 10 for the first, 10 for the second.

For WTILKPNDAINFESN [SEQ ID NO: 6], the “# Alleles Bound” value was 8.

Tested on: HLA-A3 supertype (A*0301, A*1101, A*3101, A*3301, A*6801)
Type: binding, human

Going from “HIYYLEKANK (Influenza Virus) [SEQ ID NO: 178]” to “SQDPTMLYNK (Influenza Virus) [SEQ ID NO: 290]”, the “# Alleles Bound” value falls from 4 to 2.

Going from “LFFKCIYRR (Influenza Virus) [SEQ ID NO: 83]” to “ALTLNTMTK (Influenza Virus) [SEQ ID NO: 229]”, the “# Alleles Bound” value falls from 4 to 2.

“VLRGFLILGK (Influenza Virus) [SEQ ID NO: 293]” and “RTFFGWKEPY (Influenza Virus) [SEQ ID NO: 180]” are the same in “# Alleles Bound” value: 3 for the first, 3 for the second.

“AQMALQLFIK (Influenza Virus) [SEQ ID NO: 237]” and “YQKCCTLFEK (Influenza Virus) [SEQ ID NO: 241]” are the same in “# Alleles Bound” value: 2 for the first, 2 for the second.

First: NLYGFIIKGR (Influenza Virus) [SEQ ID NO: 184]
Second: KQIVERILK (Influenza Virus) [SEQ ID NO: 145]
The “# Alleles Bound” value of the first is higher: 4 for the first, 2 for the second.

“SLMQGSTLPR (Influenza Virus) [SEQ ID NO: 119]” and “LLPFAAAPPK (Influenza Virus) [SEQ ID NO: 292]” are the same in “# Alleles Bound” value: 4 for the first, 4 for the second.

“KLVGINMSK (Influenza Virus) [SEQ ID NO: 233]” and “ATTHSWIPKR (Influenza Virus) [SEQ ID NO: 240]” are the same in “# Alleles Bound” value: 2 for the first, 2 for the second.

Compared with “IQNSITIER (Influenza Virus) [SEQ ID NO: 117]”, “SFSFGGFTFK (Influenza Virus) [SEQ ID NO: 283]” is higher in “# Alleles Bound” value: 2 for the first, 5 for the second.

Going from “ALMEWLKTR (Influenza Virus) [SEQ ID NO: 73]” to “GTMVMELIR (Influenza Virus) [SEQ ID NO: 121]”, the “# Alleles Bound” value falls from 5 to 3.

First: ALANTIEVFR (Influenza Virus) [SEQ ID NO: 226]
Second: KIPKTKNMKK (Influenza Virus) [SEQ ID NO: 181]
The “# Alleles Bound” value of the first is higher: 3 for the first, 2 for the second.

First: KLLLIVQALR (Influenza Virus) [SEQ ID NO: 188]
Second: TTVDHMAIIK (Influenza Virus) [SEQ ID NO: 275]
The “# Alleles Bound” value of the first is higher: 3 for the first, 2 for the second.

Compared with “FQLIPMISK (Influenza Virus) [SEQ ID NO: 182]”, “MVTQRTIGKK (Influenza Virus) [SEQ ID NO: 228]” is higher in “# Alleles Bound” value: 2 for the first, 3 for the second.

Compared with “VQPTFSVQR (Influenza Virus) [SEQ ID NO: 125]”, “VVFCGTSGTY (Influenza Virus) [SEQ ID NO: 96]” is lower in “# Alleles Bound” value: 3 for the first, 2 for the second.

Compared with “ITGFAPFSK (Influenza Virus) [SEQ ID NO: 93]”, FSFGGFTFK [SEQ ID NO: 284] is higher in “# Alleles Bound” value: 3 for the first, 5 for the second.

First: KLVGINMSKK (Influenza Virus) [SEQ ID NO: 234]
Second: LQLFIKDYR (Influenza Virus) [SEQ ID NO: 238]
The “# Alleles Bound” value of the first is lower: 2 for the first, 3 for the second.

“RIMEMIPER (Influenza Virus) [SEQ ID NO: 277]” and “VVSIDRFLR (Influenza Virus) [SEQ ID NO: 289]” are the same in “# Alleles Bound” value: 4 for the first, 4 for the second.

Going from “STVHYPKVYK (Influenza Virus) [SEQ ID NO: 279]” to “MTKEFFENK (Influenza Virus) [SEQ ID NO: 186]”, the “# Alleles Bound” value rises from 4 to 5.

Going from RLFFKCIYRR [SEQ ID NO: 82] to “YQKCCNLFEK (Influenza Virus) [SEQ ID NO: 242]”, the “# Alleles Bound” value falls from 5 to 2.

“MQGSTLPRR (Influenza Virus) [SEQ ID NO: 120]” and “VLTGNLQTLK (Influenza Virus) [SEQ ID NO: 287]” are the same in “# Alleles Bound” value: 2 for the first, 2 for the second.

First: ASYKIFKIEK (Influenza Virus) [SEQ ID NO: 95]
Second: TTSTVHYPK (Influenza Virus) [SEQ ID NO: 278]
The “# Alleles Bound” value of the first is lower: 2 for the first, 5 for the second.

SVQRNLPFER [SEQ ID NO: 126] and “ATTHSWIPK (Influenza Virus) [SEQ ID NO: 239]” are the same in “# Alleles Bound” value: 4 for the first, 4 for the second.

“MVMELIRMIK (Influenza Virus) [SEQ ID NO: 122]” and KTNLYGFIIK [SEQ ID NO: 183] are the same in “# Alleles Bound” value: 4 for the first, 4 for the second.

Compared with “GTFDTVQIIK (Influenza Virus) [SEQ ID NO: 291]”, “RLFFKCIYR (Influenza Virus) [SEQ ID NO: 81]” is higher in “# Alleles Bound” value: 3 for the first, 5 for the second.

First: TVHYPKVYK (Influenza Virus) [SEQ ID NO: 280]
Second: TIGECPKYVK (Influenza Virus) [SEQ ID NO: 66]
The “# Alleles Bound” value of the first is higher: 5 for the first, 1 for the second.

First: KFLLMDALK (Influenza Virus) [SEQ ID NO: 179]
Second: AVASGYDFER (Influenza Virus) [SEQ ID NO: 123]
The “# Alleles Bound” value of the first is lower: 2 for the first, 3 for the second.

“SVQPTFSVQR (Influenza Virus) [SEQ ID NO: 124]” and “SICNTTGVEK (Influenza Virus) [SEQ ID NO: 176]” are the same in “# Alleles Bound” value: 4 for the first, 4 for the second.

Compared with MITQFESLK [SEQ ID NO: 156], “GTFGPVHFR (Influenza Virus) [SEQ ID NO: 282]” is higher in “# Alleles Bound” value: 3 for the first, 5 for the second.

“SIAPIMFSNK (Influenza Virus) [SEQ ID NO: 231]” and “SFGGFTFKR (Influenza Virus) [SEQ ID NO: 286]” are the same in “# Alleles Bound” value: 4 for the first, 4 for the second.

MVLSAFDER [SEQ ID NO: 118] and “MVTQRTIGK (Influenza Virus) [SEQ ID NO: 227]” are the same in “# Alleles Bound” value: 4 for the first, 4 for the second.

Going from “HQLLRHFQK (Influenza Virus) [SEQ ID NO: 288]” to “TFEFTSFFYR (Influenza Virus) [SEQ ID NO: 236]”, the “# Alleles Bound” value rises from 3 to 4.

“TLARSICEK (Influenza Virus) [SEQ ID NO: 230]” and “TQFESLKLYR (Influenza Virus) [SEQ ID NO: 157]” are the same in “# Alleles Bound” value: 3 for the first, 3 for the second.

KVYKTYFEK [SEQ ID NO: 281] and “SINELSNLAK (Influenza Virus) [SEQ ID NO: 294]” are the same in “# Alleles Bound” value: 3 for the first, 3 for the second.

First: ASCMGLIYNR [SEQ ID NO: 74]
Second: ITGWAIFSK (Influenza Virus) [SEQ ID NO: 94]
The “# Alleles Bound” value of the first is higher: 4 for the first, 3 for the second.

Compared with “FSFGGFTFKR (Influenza Virus) [SEQ ID NO: 285]”, “KFFPSSSYR (Influenza Virus) [SEQ ID NO: 243]” is lower in “# Alleles Bound” value: 5 for the first, 4 for the second.

“QTYDWTLNR (Influenza Virus) [SEQ ID NO: 225]” and GTFEFTSFFY [SEQ ID NO: 235] are the same in “# Alleles Bound” value: 4 for the first, 4 for the second.

“TVDHMAIIK (Influenza Virus) [SEQ ID NO: 276]” and “KFLPDLYDYK (Influenza Virus) [SEQ ID NO: 177]” are the same in “# Alleles Bound” value: 2 for the first, 2 for the second.

Reference: patent US8865182B2 (priority 2009, dated 2014)
